Measured values as given in US10039845B2, “Labeled inhibitors of prostate specific membrane antigen (PSMA) biological evaluation, and use of imaging agents” (THE JOHNS HOPKINS UNIVERSITY, priority 2007, dated 2018).

What was measured:
[1] = test system: PSMA+ PC3 PIP and PSMA− PC3 flu xenografts; conditions: for PIP (PSMA+) tumor uptake on SPECT-CT: SCID mice, 0.5-1 mCi i.v., imaged at 45 min p.i.; for uptake in normal organs (gallbladder, liver, kidneys) on SPECT-CT: mouse, in vivo, iv; for tumor contrast on late SPECT-CT images: several hours after injection (3.5-4 h uptake period)
[2] = test system: PSMA+ PC3 PIP and PSMA− PC3 flu xenografts; conditions: mouse, in vivo
PSMA = biological target: T1, PSMA (Homo sapiens, UniProt Q04609); assay: NAALADase assay (NAAG hydrolysis, LNCaP cell extracts); assay type: biochemical; conditions: for Ki: LNCaP cell extracts, Cheng-Prusoff conversion, read-out: Ki (PSMA inhibitory activity)
T1 construct: LNCaP cell extracts were prepared by sonication in NAALADase buffer; endogenous in cells; host or cells: LNCaP cell extract (sonicated in 50 mM Tris pH 7.4, 0.5% Triton X-100)
T1 sequence (Q04609 whole entry): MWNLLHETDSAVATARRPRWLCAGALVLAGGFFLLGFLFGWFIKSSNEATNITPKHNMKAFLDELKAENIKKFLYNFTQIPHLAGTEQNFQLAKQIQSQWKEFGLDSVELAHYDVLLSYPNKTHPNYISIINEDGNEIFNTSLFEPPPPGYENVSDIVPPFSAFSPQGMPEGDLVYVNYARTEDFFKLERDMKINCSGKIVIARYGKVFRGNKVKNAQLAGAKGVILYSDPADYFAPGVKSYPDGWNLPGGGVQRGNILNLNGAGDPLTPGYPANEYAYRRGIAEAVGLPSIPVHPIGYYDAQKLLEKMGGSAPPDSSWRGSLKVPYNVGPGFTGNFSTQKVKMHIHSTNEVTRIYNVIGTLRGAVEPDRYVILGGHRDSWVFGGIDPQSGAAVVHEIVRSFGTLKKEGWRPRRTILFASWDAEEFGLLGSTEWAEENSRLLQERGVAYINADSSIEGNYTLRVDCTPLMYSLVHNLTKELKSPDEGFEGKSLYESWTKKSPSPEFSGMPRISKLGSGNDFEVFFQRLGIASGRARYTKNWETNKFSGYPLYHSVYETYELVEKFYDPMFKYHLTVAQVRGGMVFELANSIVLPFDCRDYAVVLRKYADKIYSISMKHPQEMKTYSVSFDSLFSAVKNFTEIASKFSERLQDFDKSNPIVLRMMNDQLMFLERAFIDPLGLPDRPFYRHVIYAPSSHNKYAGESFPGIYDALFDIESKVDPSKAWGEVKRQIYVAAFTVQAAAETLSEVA
Protocol: The relative binding affinities of L1-L7 and ReL1-ReL7, were determined using the N-acetylated-α-linked acidic dipeptidase (NAALADase) assay as previously described.
NAAG hydrolysis was performed essentially as described previously (Robinson, M. B.; et al. J Biol Chem 1987, 262, 14498-14506; Lupold, S. E.; et al. Cancer Res 2002, 62, 4029-4033.). In short, LNCaP cell extracts were prepared by sonication in NAALADase buffer [50 mM Tris (pH 7.4) and 0.5% Triton X-100]. Cell lysates were incubated with or without inhibitor at 37° C. for 10 minutes. Following the incubation the radiolabeled substrate N-acetyl-L-aspartyl-L-(3,4-^3H)glutamate (NEN Life Science Products, Boston, Mass.) was added to a final concentration of 30 nM at 37° C. for 10-15 min. The reaction was stopped by the addition of an equal volume of ice-cold 100 mM sodium phosphate and 2 mM EDTA. Products were partitioned by AG 1-X8 formate resin (Bio-Rad Laboratories) anion exchange chromatography, eluted with 1 M sodium formate, and quantified by liquid scintillation counting. […] Assays were performed in triplicate with the entire inhibition study being repeated at least once to confirm affinity and mode of inhibition. Data were collected during linear phase of hydrolysis (i.e., <20% cleavage of total substrate). Enzyme inhibitory constants (Ki values) were generated using the Cheng-Prusoff conversion (Cheng, Y.; Prusoff, W. H. Biochem Pharmcol 1973, 22, 3099-3108).

[3] = Metabolite studies (HPLC of tissue extracts, plasma, urine); assay type: in vivo, mice
Protocol: Mice were sacrificed at either 30 min or 1 h postinjection by cervical dislocation and their blood and selected organs were removed. Blood samples were withdrawn using heparinized syringes and tissues were placed on ice prior to manual homogenization in PBS, pH 7.4. Plasma and tissue homogenates in PBS were centrifuged for 2 min at 13,000×g at ambient temperature. A portion of the supernatant was diluted to 4 mL in 8 M urea containing 50 mg citric acid. Urine samples were added directly to 4 mL of the acidified urea solution. Samples then underwent separation by HPLC as previously described (Hilton, J.; et al. Nucl Med Biol 2000, 27, 627-630). Briefly, the 4 mL sample in 8 M acidified urea was passed through a capture column (Strata-X, 19×4.4 mm, Phenomenex, Torrance, Calif.) at 2 mL/min followed by 1% acetonitrile in water to wash plasma proteins from the column. The effluent from the capture column, containing only highly polar components, flowed through a dual BGO detector (Bioscan, Washington, D.C.) operating in the […]. The solvent was then switched to 30% acetonitrile:50 mM phosphate buffer at pH 2.4 (2 mL/min) for elution of the radiolabeled components previously bound to the capture column onto the analytical column (Synergi Polar-RP 250×4.6 mm 10 micron particle size Phenomenex).

## O=C(O)CCC(NC(=O)NC(CCCCNC(=O)CCCCCCC(=O)NCCCCC(C(=O)O)N(Cc1ccccn1)Cc1ccccn1)C(=O)O)C(=O)O.[99Tc+].[C-]#[O+].[C-]#[O+].[C-]#[O+] (centres unmarked) [[^99mTc]L3]
[1]
  PIP (PSMA+) tumor uptake on SPECT-CT: strong PIP tumor uptake
  uptake in normal organs (gallbladder, liver, kidneys) on SPECT-CT: gallbladder uptake and clear visualization of the kidneys
  tumor contrast on late SPECT-CT images: higher contrast of tumor with respect to background
[2]
  PIP:flu uptake ratio, held steady: around 5

## O=C(O)CCC(NC(=O)NC(CCCCNC(=O)CCCCCCC(=O)NCCCCCCN(CC(=O)O)Cc1ccccn1)C(=O)O)C(=O)O (centres unmarked) [Compound L4, 2-[3-(1-Carboxy-5-{7-[6-(carboxymethyl-pyridin-2-ylmethyl-amino)-hexylcarbamoyl]-heptanoylamino}-pentyl)-ureido]-pentanedioic acid]
PSMA
  Ki: 2.54 nM

## O=C(O)CCC(NC(=O)NC(CCCCNC(=O)CCCCCCC(=O)NCCCCCCN(Cc1ccccn1)Cc1ccccn1)C(=O)O)C(=O)O.[Br-].[C-]#[O+].[C-]#[O+].[C-]#[O+].[Re+] (stereo not drawn) [ReL7, Tricarbonyl(2-[3-(5-{7-[6-(Bis-pyridin-2-ylmethyl-amino)-hexylcarbamoyl]-heptanoylamino}-1-carboxy-pentyl)-ureido]-pentanedioic acid)rhenium bromide]
PSMA
  Ki: 2.06 nM

## O=C(O)CCC(NC(=O)NC(CCCCN(Cc1ccccn1)Cc1ccccn1)C(=O)O)C(=O)O.[Br-].[C-]#[O+].[C-]#[O+].[C-]#[O+].[Re+] (stereo not drawn) [ReL6, Tricarbonyl(2-{3-[5-(bis-pyridin-2-ylmethyl-amino)-1-carboxy-pentyl]-ureido}-pentanedioic acid)rhenium bromide]
PSMA
  Ki: 200 nM

## O=C(O)CC[C@H](NC(=O)N[C@@H](CCCCNC(=O)CCCCCCCN(Cc1ccccn1)Cc1ccccn1)C(=O)O)C(=O)O.[99Tc+].[C-]#[O+].[C-]#[O+].[C-]#[O+] [[^99mTc]L5]
[1]
  PIP (PSMA+) tumor uptake on SPECT-CT: qualitatively similar to [^99mTc]L4

## O=C(O)CC[C@H](NC(=O)N[C@@H](CCCCN(Cc1ccccn1)Cc1ccccn1)C(=O)O)C(=O)O.[99Tc+].[C-]#[O+].[C-]#[O+].[C-]#[O+] [[^99mTc]L6]
[1]
  PIP (PSMA+) tumor uptake on SPECT-CT: no PIP tumor-specific uptake

## O=C(O)CC[C@H](NC(=O)N[C@@H](CCCCNC(=O)CCCCCCC(=O)N[C@@H](CCCCN(Cc1ccc2ccccc2n1)Cc1ccc2ccccc2n1)C(=O)O)C(=O)O)C(=O)O.[99Tc+].[C-]#[O+].[C-]#[O+].[C-]#[O+] [[^99mTc]L2]
[1]
  PIP (PSMA+) tumor uptake on SPECT-CT: weak PIP tumor uptake
  uptake in normal organs (gallbladder, liver, kidneys) on SPECT-CT: strong gallbladder uptake and kidney uptake

## O=C(O)CCC(NC(=O)NC(CCCCNC(=O)CCCCCCC(=O)NCCCCC(C(=O)O)N(Cc1ccccn1)Cc1ccccn1)C(=O)O)C(=O)O.[Br-].[C-]#[O+].[C-]#[O+].[C-]#[O+].[Re+] (stereo not drawn) [ReL3, Tricarbonyl(2-[3-(5-{7-[5-(bis-pyridin-2-ylmethyl-amino)-5-carboxy-pentylcarbamoyl]-heptanoylamino}-1-carboxy-pentyl)-ureido]-pentanedioic acid)rehenium bromide]
PSMA
  Ki: 10.3 nM

## O=C(O)CCC(NC(=O)NC(CCCCNC(=O)CCCCCCCN(Cc1ccccn1)Cc1ccccn1)C(=O)O)C(=O)O.[Br-].[C-]#[O+].[C-]#[O+].[C-]#[O+].[Re+] (stereo not drawn) [ReL5, Tricarbonyl(2-(3-{5-[8-(bis-pyridin-2-ylmethyl-amino)-octanoylamino]-1-carboxy-pentyl}-ureido)-pentanedioic acid)rhenium bromide]
PSMA
  Ki: 0.91 nM

## O=C(O)CCC(NC(=O)NC(CCCCNC(=O)CCCCCCC(=O)NCCCCC(C(=O)O)N(Cc1ccccn1)Cc1ccccn1)C(=O)O)C(=O)O (centres unmarked) [Compound L3, 2-[3-(5-{7-[5-(Bis-pyridin-2-ylmethyl-amino)-5-carboxy-pentylcarbamoyl]-heptanoylamino}-1-carboxy-pentyl)-ureido]-pentanedioic acid]
PSMA
  Ki: 1.08 nM

## O=C(O)CCC(NC(=O)NC(CCCCNC(=O)CCCCCCCN(Cc1ccccn1)Cc1ccccn1)C(=O)O)C(=O)O (centres unmarked) [Compound L5, 2-(3-{5-[8-(Bis-pyridin-2-ylmethyl-amino)-octanoylamino]-1-carboxy-pentyl}-ureido)-pentanedioic acid]
PSMA
  Ki: 1.86 nM

## O=C(O)CCC(NC(=O)NC(CCCCN(Cc1ccccn1)Cc1ccccn1)C(=O)O)C(=O)O (centres unmarked) [Compound L6, 2-{3-[5-(Bis-pyridin-2-ylmethyl-amino)-1-carboxy-pentyl]-ureido}-pentanedioic acid]
PSMA
  Ki: 7.53 nM

## O=C(O)CCC(NC(=O)NC(CCCCNC(=O)CCCCCCC(=O)NCCCCCCN(CC(=O)[O][Re])Cc1ccccn1)C(=O)O)C(=O)O.[C-]#[O+].[C-]#[O+].[C-]#[O+] (stereo not drawn) [ReL4, Tricarbonyl(2-[3-(1-carboxy-5-{7-[6-(carboxymethyl-pyridin-2-ylmethyl-amino)-hexylcarbamoyl]-heptanoylamino}-pentyl)-ureido]-pentanedioic acid) rhenium]
PSMA
  Ki: 0.17 nM
PSMA; relative to ReL7
  fold higher PSMA inhibitory potency than ReL7: about 12 fold

## Tricarbonyl (2-[3-(5-{7-[5-(bis-pyridin-2-ylmethyl-amino)-1-carboxy-pentylcarbamoyl]-heptanoylamino}-1-carboxy-pentyl)-ureido]-pentanedioic acid) rhenium bromide [ReL1]
PSMA
  Ki: 10.8 nM

## O=C(O)CC[C@H](NC(=O)N[C@@H](CCCCNC(=O)CCCCCCC(=O)N[C@@H](CCCCN(Cc1ccccn1)Cc1ccccn1)C(=O)O)C(=O)O)C(=O)O.[99Tc+].[C-]#[O+].[C-]#[O+].[C-]#[O+] [[^99mTc]L1]
[1]
  PIP (PSMA+) tumor uptake on SPECT-CT: strongly positive PIP tumor
  uptake in normal organs (gallbladder, liver, kidneys) on SPECT-CT: gallbladder uptake and clear visualization of the kidneys
  tumor contrast on late SPECT-CT images: higher contrast of tumor with respect to background
[3]; all other tissue extracts, plasma and urine at 30 and 60 min postinjection
  chromatographed radioactivity as the parent compound: 100%
[3]; mouse kidney extracted 60 min after injection
  extracted radioactivity as a polar metabolite: 2%

## O=C(O)CCC(NC(=O)NC(CCCCNC(=O)CCCCCCC(=O)NC(CCCCNC(=O)CN1CCN(CC(=O)O)CCN(CC(=O)O)CCN(CC(=O)O)CC1)C(=O)O)C(=O)O)C(=O)O (centres unmarked) [DOTA-L1, 2-{3-[1-Carboxy-5-(7-{1-carboxy-5-[2-(4,7,10-tris-carboxymethyl-1,4,7,10tetraaza-cyclododec-1-yl)-acetylamino]-pentylcarbamoyl}-heptanoylamino)-pentyl]-ureido}-pentanedioic acid]
PSMA
  IC50: 0.8 nM

## O=C(O)CCC(NC(=O)NC(CCCCNC(=O)CCCCCCC(=O)NCCCCCCN(Cc1ccccn1)Cc1ccccn1)C(=O)O)C(=O)O (centres unmarked) [Compound L7, 2-[3-(5-{7-[6-(Bis-pyridin-2-ylmethyl-amino)-hexylcarbamoyl]-heptanoylamino}-1-carboxy-pentyl)-ureido]-pentanedioic acid]
PSMA
  Ki: 0.45 nM
